Results taken from patent US11091478B2 (Fochon Pharmaceuticals, Ltd., priority 2017, dated 2021).

tested on: DOHH2 cells; test: Cell proliferation assay (MTS), DOHH2 cells, 120 h; format: cell-based; conditions: Homo sapiens, DOHH-2, 120 h
Description: Cell Proliferation Assays
MTS testing kit was purchased from Promega. The RPMI-1640, Fetal bovine serum and Penicillin-Streptomycin were purchased from Gibco. Dimethyl sulfoxide (DMSO) was purchased from Sigma.
To investigate whether a compound is able to inhibit the activity of BCL-2 in cells, a mechanism-based assay using DOHH2 (DSMZ No.® ACC 47) and RS4;11 (ATCC® CRL-1873™) cell was developed. In this assay, inhibition of Bcl-2 was detected by the inhibition of DOHH2 cells proliferation. DOHH2 cells were cultured in culture flasks to 40-80% confluence in RPMI-1640 plus 10% fetal bovine serum. Cells were collected and plated onto 96-well plates at desired cell density (5000 cells/well). Plates were incubated overnight at 37° C., with 5% CO2 to adhere. Compounds were added to the plates, and the final compound concentrations were 10000, 3333, 1111, […], 124, 41, 14, 4.6 and 1.5 nM. Plates plated with DOHH2 or RS4;11 cells were placed at 37° C., with 5% CO2 for 120 h (DOHH2) or 72 h (RS4;11) respectively. 20 μl MTS/100 μl medium mixture solution were added to each well and incubate the plates for exactly 2 hours. The reaction was stopped by adding 25 μl 10% SDS per well. Measure absorbance at 490 nm and 650 nm (reference wavelength). IC50 was calculated using GraphPad Prism 5.0.
Select compounds prepared as described above were assayed according to the biological procedures described herein.

SMILES | IC50 [nM]
CC1(C)CCC(CN2CCN(c3ccc(C(=O)NS(=O)(=O)c4cc5c(c([N+](=O)[O-])c4)N[C@@H](CCOC(=O)N4CCOCC4)CO5)c(Oc4cnc5[nH]ccc5c4)c3)CC2)=C(c2ccc(Cl)cc2)C1 [Example 2-135, (S)-2-(7-(N-(2-((1H-pyrrolo[2,3-b]pyridin-5-yl)oxy)-4-(4-((4′-chloro-5,5-dimethyl-3,4,5,6-tetrahydro-[1,1′-biphenyl]-2-yl)methyl)piperazin-1-yl)benzoyl)sulfamoyl)-5-nitro-3,4-dihydro-2H-benzo[b][1,4]oxazin-3-yl) ethyl morpholine-4-carboxylate] | 186
CC1(C)CCC(CN2CCN(c3ccc(C(=O)NS(=O)(=O)c4cc5c(c([N+](=O)[O-])c4)N[C@H](CNS(C)(=O)=O)CO5)c(Oc4cnc5[nH]ccc5c4)c3)CC2)=C(c2ccc(Cl)cc2)C1 [Example 2-136, (R)-2-((1H-pyrrolo[2,3-b]pyridin-5-yl)oxy)-4-(4-((4′-chloro-5,5-dimethyl-3.4.5.6-tetra-hydro-[1,1′-biphenyl]-2-yl)methyl)piperazin-1-yl)-N-((3-(methylsulfonamidomethyl)-5-nitro-3,4-dihydro-2H-benzo[b][1,4]oxa-zin-7-yl)sulfonyl)benzamide] | 378
CCS(=O)(=O)NC[C@@H]1COc2cc(S(=O)(=O)NC(=O)c3ccc(N4CCN(CC5=C(c6ccc(Cl)cc6)CC(C)(C)CC5)CC4)cc3Oc3cnc4[nH]ccc4c3)cc([N+](=O)[O-])c2N1 [Example 2-137, (R)-2-((1H-pyrrolo[2,3-b]pyridin-5-yl)oxy)-4-(4-((4′-chloro-5,5-dimethyl-3,4,5,6-tetra-hydro-[1,1′-biphenyl]-2-yl)methyl)piperazin-1-yl)-N-((3-(ethylsulfonamidomethyl)-5-nitro-3,4-dihydro-2H-benzo[b][1,4]oxazin-7-yl)sulfonyl)benzamide] | 139
CC1(C)CCC(CN2CCN(c3ccc(C(=O)NS(=O)(=O)c4cc5c(c([N+](=O)[O-])c4)N[C@H](CN4CCOC4=O)CO5)c(Oc4cnc5[nH]ccc5c4)c3)CC2)=C(c2ccc(Cl)cc2)C1 [Example 2-146, (R)-2-((1H-pyrrolo[2,3-b]pyridin-5-yl)oxy)-4-(4-((4′-chloro-5,5-dimethyl-3,4,5,6-tetra-hydro-[1,1′-biphenyl]-2-yl)methyl)piperazin-1-yl)-N-((5-nitro-3-((2-oxooxazolidin-3-yl)methyl)-3,4-dihydro-2H-benzo[b][1,4]oxazin-7-yl)sulfonyl)benzamide] | 160
CC1(C)CCC(CN2CCN(c3ccc(C(=O)NS(=O)(=O)c4cc5c(c([N+](=O)[O-])c4)N[C@H](c4ccccc4)CO5)c(Oc4cnc5[nH]ccc5c4)c3)CC2)=C(c2ccc(Cl)cc2)C1 [Example 2-165, (R)-2-((1H-pyrrolo[2,3-b]pyridin-5-yl)oxy)-4-(4-((4′-chloro-5,5-dimethyl-3,4,5,6-tetra-hydro-[1,1′-biphenyl]-2-yl)methyl)piperazin-1-yl)-N-((5-nitro-3-phenyl-3,4-dihydro-2H-benzo[b][1,4]oxazin-7-yl)sulfonyl)benza-mide] | 77
CC1(C)CCC(CN2CCN(c3ccc(C(=O)NS(=O)(=O)c4cc5c(c([N+](=O)[O-])c4)N[C@H](c4ccc(Cl)cc4)CO5)c(Oc4cnc5[nH]ccc5c4)c3)CC2)=C(c2ccc(Cl)cc2)C1 [Example 2-167, (R)-2-((1H-pyrrolo[2,3-b]pyridin-5-yl)oxy)-4-(4-((4′-chloro-5,5-dimethyl-3,4,5,6-tetra-hydro-[1,1′-biphenyl]-2-yl)methyl)piperazin-1-yl)-N-((3-(4-chlorophenyl)-5-nitro-3,4-dihydro-2H-benzo[b][1,4]oxazin-7-yl)sulfo-nyl)benzamide] | 29
COc1ccc([C@@H]2COc3cc(S(=O)(=O)NC(=O)c4ccc(N5CCN(CC6=C(c7ccc(Cl)cc7)CC(C)(C)CC6)CC5)cc4Oc4cnc5[nH]ccc5c4)cc([N+](=O)[O-])c3N2)cc1 [Example 2-169, (R)-2-((1H-pyrrolo[2,3-b]pyridin-5-yl)oxy)-4-(4-((4′-chloro-5,5-dimethyl-3,4,5,6-tetra-hydro-[1,1′-biphenyl]-2-yl)methyl)piperazin-1-yl)-N-((3-(4-methoxyphenyl)-5-nitro-3,4-dihydro-2H-benzo[b][1,4]oxazin-7-yl)sulfonyl)benzamide] | 39
CC1(C)CCC(CN2CCN(c3ccc(C(=O)NS(=O)(=O)c4cc5c(c([N+](=O)[O-])c4)N[C@H](c4ccc(C#N)cc4)CO5)c(Oc4cnc5[nH]ccc5c4)c3)CC2)=C(c2ccc(Cl)cc2)C1 [Example 2-170, (R)-2-((1H-pyrrolo[2,3-b]pyridin-5-yl)oxy)-4-(4-((4′-chloro-5,5-dimethyl-3,4,5,6-tetra-hydro-[1,1′-biphenyl]-2-yl)methyl)piperazin-1-yl)-N-((3-(4-cyanophenyl)-5-nitro-3,4-dihydro-2H-benzo[b][1,4]oxazin-7-yl)sulfo-nyl)benzamide] | 464
CC1(C)CCC(CN2CCN(c3ccc(C(=O)NS(=O)(=O)c4cc5c(c([N+](=O)[O-])c4)N[C@@H](c4ccccn4)CO5)c(Oc4cnc5[nH]ccc5c4)c3)CC2)=C(c2ccc(Cl)cc2)C1 [Example 2-171, (S)-2-((1H-pyrrolo[2,3-b]pyridin-5-yl)oxy)-4-(4-((4′-chloro-5,5-dimethyl-3,4,5,6-tetra-hydro-[1,1′biphenyl]-2-yl)methyl)piperazin-1-yl)-N-((5-nitro-3-(pyridin-2-yl)-3,4-di-hydro-2H-benzo[b][1,4]oxazin-7-yl)sulfonyl) benzamide] | 302
CC1(C)CCC(CN2CCN(c3ccc(C(=O)NS(=O)(=O)c4cc5c(c([N+](=O)[O-])c4)N[C@@H](c4ccccc4)CO5)c(Oc4cnc5[nH]ccc5c4)c3)CC2)=C(c2ccc(Cl)cc2)C1 [Example 2-172, (S)-2-((1H-pyrrolo[2,3-b]pyridin-5-yl)oxy)-4-(4-((4′-chloro-5,5-dimethyl-3,4,5,6-tetra-hydro[1,1′-biphenyl]-2-yl)methyl)piperazin-1-yl)-N-((5-nitro-3-phenyl-3,4-dihydro-2H-benzo[b][1,4]oxazin-7-yl)sulfonyl)benza-mide] | 14
CC1(C)CCC(CN2CCN(c3ccc(C(=O)NS(=O)(=O)c4cc5c(c([N+](=O)[O-])c4)N[C@@H](c4ccc(F)cc4)CO5)c(Oc4cnc5[nH]ccc5c4)c3)CC2)=C(c2ccc(Cl)cc2)C1 [Example 2-173, (S)-2-((1H-pyrrolo[2,3-b]pyridin-5-yl)oxy)-4-(4-((4′-chloro-5,5-dimethyl-3,4,5,6-tetra-hydro-[1,1′-biphenyl]-2-yl)methyl)piperazin-1-yl)-N-((3-(4-fluorophenyl)-5-nitro-3,4-dihydro-2H-benzo[b][1,4]oxazin-7-yl)sulfo-nyl)benzamide] | 24
CC1(C)CCC(CN2CCN(c3ccc(C(=O)NS(=O)(=O)c4cc5c(c([N+](=O)[O-])c4)N[C@@H](c4ccc(Cl)cc4)CO5)c(Oc4cnc5[nH]ccc5c4)c3)CC2)=C(c2ccc(Cl)cc2)C1 [Example 2-174, (S)-2-((1H-pyrrolo[2,3-b]pyridin-5-yl)oxy)-4-(4-((4′-chloro-5,5-dimethyl-3,4,5,6-tetra-hydro-[1,1′-biphenyl]-2-yl)methyl)piperazin-1-yl)-N-((3-(4-chlorophenyl)-5-nitro-3,4-dihydro-2H-benzo[b][1,4]oxazin-7-yl)sulfo-nyl)benzamide] | 23
CC1(C)CCC(CN2CCN(c3ccc(C(=O)NS(=O)(=O)c4cc5c(c([N+](=O)[O-])c4)N[C@H](c4ccc(F)cn4)CO5)c(Oc4cnc5[nH]ccc5c4)c3)CC2)=C(c2ccc(Cl)cc2)C1 [Example 2-178, (R)-2-((1H-pyrrolo[2,3-b]pyridin-5-yl)oxy)-4-(4-((4′-chloro-5,5-dimethyl-3,4,5,6-tetra-hydro-[1,1′-biphenyl]-2-yl)methyl)piperazin-1-yl)-N-((3-(5-fluoropyridin-2-yl)-5-nitro-3,4-dihydro-2H-benzo[b][1,4]oxazin-7-yl)sulfonyl)benzamide] | 28
CC1(C)CCC(CN2CCN(c3ccc(C(=O)NS(=O)(=O)c4cc5c(c([N+](=O)[O-])c4)N[C@@H](Cc4ccccc4Cl)CO5)c(Oc4cnc5[nH]ccc5c4)c3)CC2)=C(c2ccc(Cl)cc2)C1 [Example 2-191, (S)-2-((1H-pyrrolo[2,3-b]pyridin-5-yl)oxy)-4-(4-((4′-chloro-5,5-dimethyl-3,4,5,6-tetra-hydro-[1,1′-biphenyl]-2-yl)methyl)piperazin-1-yl)-N-((3-(2-chlorobenzyl)-5-nitro-3,4-dihydro-2H-benzo[b][1,4]oxazin-7-yl)sulfo-nyl)benzamide] | 153
CC1(C)CCC(CN2CCN(c3ccc(C(=O)NS(=O)(=O)c4cc5c(c([N+](=O)[O-])c4)N[C@@H](c4ccc(F)cn4)CO5)c(Oc4cnc5[nH]ccc5c4)c3)CC2)=C(c2ccc(Cl)cc2)C1 [Example 2-197, (S)-2-((1H-pyrrolo[2,3-b]pyridin-5-yl)oxy)-4-(4-((4′-chloro-5,5-dimethyl-3,4,5,6-tetra-hydro-[1,1′-biphenyl]-2-yl)methyl)piperazin-1-yl)-N-((3-(5-fluoropyridin-2-yl)-5-nitro-3,4-dihydro-2H-benzo[b][1,4]oxazin-7-yl)sulfonyl)benzamide] | 412
